Measurements from BigSolDB 2.1.

CC(=O)Oc1ccc(C(c2ccc(OC(C)=O)cc2)c2ccccn2)cc1
solubility (mole fraction)
Settings | 273.15 K | 278.15 K | 283.15 K | 288.15 K | 293.15 K | 298.15 K | 303.15 K | 308.15 K | 313.15 K
in 1,4-dioxane | – | – | – | 0.00241 | 0.00274 | 0.00307 | 0.00343 | 0.00378 | 0.00424
in DMF | 0.00201 | 0.00228 | 0.00255 | 0.00291 | 0.00325 | 0.00368 | 0.00407 | 0.00447 | 0.00496
in NMP | 0.00187 | 0.0021 | 0.00236 | 0.00264 | 0.00295 | 0.0033 | 0.00372 | 0.00418 | 0.00474
in acetone | 0.00126 | 0.00153 | 0.00181 | 0.00212 | 0.00246 | 0.00281 | 0.00318 | 0.00359 | 0.00403
in acetonitrile | 0.000983 | 0.00115 | 0.00136 | 0.0016 | 0.00185 | 0.00215 | 0.00243 | 0.00274 | 0.00308
in ethanol | 4.5e-05 | 5.8e-05 | 7.5e-05 | 9.1e-05 | 0.00011 | 0.00013 | 0.000159 | 0.000194 | 0.00024
in ethyl acetate | 0.000724 | 0.000884 | 0.00107 | 0.00126 | 0.00148 | 0.00171 | 0.00198 | 0.00228 | 0.00263
in isopropanol | 3.8e-05 | 5.2e-05 | 6.5e-05 | 8.1e-05 | 9.8e-05 | 0.000118 | 0.000142 | 0.000166 | 0.000204
in methanol | 4.9e-05 | 6.6e-05 | 8.1e-05 | 0.000101 | 0.000123 | 0.000147 | 0.000171 | 0.000207 | 0.000254
in n-butanol | 7.1e-05 | 8.8e-05 | 0.000106 | 0.000131 | 0.00016 | 0.00019 | 0.000223 | 0.000269 | 0.000324
in n-propanol | 5.6e-05 | 7.3e-05 | 9.2e-05 | 0.000115 | 0.000141 | 0.00017 | 0.000199 | 0.000242 | 0.000304
in toluene | 0.00044 | 0.000533 | 0.000648 | 0.00076 | 0.000895 | 0.00105 | 0.00122 | 0.00141 | 0.00161
